Assay results published in PubChem BioAssay (NCI).
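Each compound was tested at five concentrations against cells in 96-well plates for 48 hours. TGI denotes the concentration required for complete inhibition of growth.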

Key:
Assay in all cases: growth of human tumour cells (NCI), 48 h
ACHN renal = test system: ACHN renal
EKVX NSCLC = test system: EKVX NSCLC
HCT-15 colon = test system: HCT-15 colon
HL-60(TB) leukemia = test system: HL-60(TB) leukemia
KM12 colon = test system: KM12 colon
MOLT-4 leukemia = test system: MOLT-4 leukemia
NCI-H460 lung = test system: NCI-H460 lung
RXF 393 renal = test system: RXF 393 renal
SF-268 CNS = test system: SF-268 CNS
SK-MEL-2 melanoma = test system: SK-MEL-2 melanoma
U251 CNS = test system: U251 CNS
UACC-257 melanoma = test system: UACC-257 melanoma
A498 renal = test system: A498 renal
NCI-H522 lung = test system: NCI-H522 lung

| SMILES | TGI (ACHN renal) | TGI (EKVX NSCLC) | TGI (HCT-15 colon) | TGI (HL-60(TB) leukemia) | TGI (KM12 colon) | TGI (MOLT-4 leukemia) | TGI (NCI-H460 lung) | TGI (RXF 393 renal) | TGI (SF-268 CNS) | TGI (SK-MEL-2 melanoma) | TGI (U251 CNS) | TGI (UACC-257 melanoma) | TGI (A498 renal) | TGI (NCI-H522 lung) |
| --- | --- | --- | --- | --- | --- | --- | --- | --- | --- | --- | --- | --- | --- | --- |
| Cc1ccc(S(=O)(=O)NC2C(=O)c3ccccc3C(=O)C2n2cnc3ccccc32)cc1 (configuration not stated) | > 100 µM | > 100 µM | > 100 µM | 40.8 µM | > 100 µM | 68.1 µM | 84.3 µM | 61.8 µM | > 100 µM | 51.7 µM | > 100 µM | > 100 µM | – | – |
| COC(=O)C1=C(\c2ccccc2)c2ccccc2C(=O)N(C2CCCCC2)/C=C\1 | > 100 µM | > 100 µM | > 100 µM | > 100 µM | 45.8 µM | > 100 µM | 65.7 µM | – | > 100 µM | 39.2 µM | 63.1 µM | 41.5 µM | > 100 µM | > 100 µM |
| O=C(O)c1ccc2c(c1)CC1(C2)Cc2ccccc2C1=O (configuration not stated) | > 100 µM | > 100 µM | > 100 µM | > 100 µM | > 100 µM | > 100 µM | > 100 µM | > 100 µM | > 100 µM | > 100 µM | > 100 µM | > 100 µM | – | > 100 µM |
| COc1ccc(C2=C(N)c3c(OC)cccc3C2=O)cc1 | – | > 100 µM | > 100 µM | > 100 µM | > 100 µM | > 100 µM | > 100 µM | 31.5 µM | > 100 µM | > 100 µM | > 100 µM | – | > 100 µM | – |
| COc1ccc2c(c1)N=C1CSC(c3cccc(Br)c3)N1C2 (configuration not stated) | 31 µM | 33.8 µM | 35.5 µM | 29.6 µM | 36 µM | 31 µM | 23.7 µM | 29.7 µM | > 100 µM | 36.3 µM | 44.3 µM | 24.3 µM | – | 39.1 µM |
| COc1cc(NP(=O)(Oc2ccccc2)Oc2ccccc2)ccc1Nc1c2ccccc2nc2c1[nH]c1ccccc12 | 11.9 µM | 44.9 µM | > 37.3 µM | – | > 100 µM | 0.204 µM | 29.2 µM | 14.1 µM | > 100 µM | 22.6 µM | 6.85 µM | > 48.5 µM | 14 µM | 7.32 µM |
| c1ccc(Nc2nnc(Cn3ccc4ccccc43)s2)cc1 | > 100 µM | > 100 µM | > 100 µM | – | > 100 µM | > 100 µM | > 100 µM | > 100 µM | > 100 µM | > 100 µM | > 100 µM | > 100 µM | > 100 µM | > 100 µM |
| COc1cc(C2C3=C(COC3=O)Oc3cc4c(cc32)OCO4)ccc1OC(C)=O (configuration not stated) | > 100 µM | > 100 µM | > 100 µM | 0.907 µM | 23.8 µM | 98.7 µM | > 100 µM | > 100 µM | > 59.5 µM | > 100 µM | > 100 µM | > 100 µM | > 30.3 µM | – |
| N#Cc1sc2c(c1OC(=O)c1cccs1)c(=O)n(-c1ccccc1)c(=S)n2-c1ccccc1 | – | 89.9 µM | 40 µM | 47.5 µM | 43.6 µM | 62.3 µM | > 100 µM | 31.9 µM | 86 µM | 51 µM | 55.5 µM | > 100 µM | – | 34.3 µM |
| Fc1ccccc1-c1nn2c(C34CC5CC(CC(C5)C3)C4)nnc2s1 | > 100 µM | > 100 µM | > 100 µM | – | – | > 100 µM | > 100 µM | > 100 µM | > 100 µM | > 100 µM | > 100 µM | > 100 µM | > 100 µM | > 100 µM |
| COc1ccc2cc(/C=N\NC(=O)Nc3cccc4ccccc34)ccc2c1 | 76.6 µM | > 100 µM | > 100 µM | – | > 100 µM | > 100 µM | 86.4 µM | > 100 µM | > 100 µM | > 100 µM | 29.9 µM | > 100 µM | 31.3 µM | > 100 µM |
| CC(=O)N(CCc1ccccc1)C(C#N)c1ccc(OCCCCCCCCCCOc2ccc(C(C#N)N(CCc3ccccc3)C(C)=O)cc2)cc1 (configuration not stated) | > 100 µM | > 100 µM | > 100 µM | > 100 µM | > 100 µM | > 100 µM | > 100 µM | 63.2 µM | 59.7 µM | > 100 µM | 64.1 µM | > 100 µM | 92.6 µM | – |
| O=c1oc2ccccc2nc1/C=C(\O)c1ccc([N+](=O)[O-])cc1 | > 100 µM | > 100 µM | > 100 µM | – | > 100 µM | > 100 µM | > 100 µM | > 100 µM | > 100 µM | > 100 µM | > 100 µM | > 100 µM | > 100 µM | > 100 µM |
| O=C1c2ccccc2-c2ccc(N=Nc3c(O)ccc4ccccc34)cc21 | – | > 100 µM | > 100 µM | – | > 100 µM | > 100 µM | – | > 100 µM | > 100 µM | > 100 µM | > 100 µM | > 100 µM | > 100 µM | > 100 µM |
| CC(C)(C)[Si](C)(C)OCC1CCC(n2cnc3c(N)ncnc32)O1 (configuration not stated) | – | – | > 100 µM | > 100 µM | > 100 µM | > 100 µM | > 100 µM | > 100 µM | – | > 100 µM | > 100 µM | > 100 µM | > 100 µM | – |
| CC/C=C/C(=O)CC(O)(C(F)(F)F)C(F)(F)F | > 100 µM | > 100 µM | > 100 µM | > 100 µM | > 100 µM | > 100 µM | > 100 µM | > 100 µM | > 100 µM | – | > 100 µM | > 100 µM | 89.4 µM | – |
| Cc1cccc(C)c1NC(=S)NC=C(C(N)=O)C(N)=O | > 100 µM | > 100 µM | > 100 µM | – | > 100 µM | > 100 µM | > 100 µM | > 100 µM | > 100 µM | > 100 µM | > 100 µM | > 100 µM | > 100 µM | > 100 µM |
| O=C1CCC2CCC1C2 (configuration not stated) | > 100 µM | – | > 100 µM | > 100 µM | > 100 µM | > 100 µM | > 100 µM | > 100 µM | > 100 µM | > 100 µM | > 100 µM | > 100 µM | > 100 µM | – |
